Assay results published in PubChem BioAssay (NCI).
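Grown in 96-well plates, cells were treated for 48 hours with each compound at five concentrations. Insufficient inhibition: endpoint recorded as highest concentration tested. GI50 is the concentration that inhibits growth by half. TGI: concentration producing complete growth inhibition.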

Key:
Test in all cases: growth of human tumour cells (NCI), 48 h
[1] = tested on: HCT-116 colon
[2] = tested on: OVCAR-5 ovarian
[3] = tested on: CAKI-1 renal
[4] = tested on: LOX IMVI melanoma
[5] = tested on: SK-MEL-2 melanoma
[6] = tested on: M14 melanoma
[7] = tested on: U251 CNS
[8] = tested on: T-47D breast
[9] = tested on: OVCAR-4 ovarian
[10] = tested on: K-562 leukemia
[11] = tested on: SN12C renal
[12] = tested on: 786-0 renal
[13] = tested on: NCI-H522 lung
[14] = tested on: CCRF-CEM leukemia
[15] = tested on: SW-620 colon
[16] = tested on: OVCAR-3 ovarian
[17] = tested on: HOP-92 NSCLC
[18] = tested on: MCF7 breast
[19] = tested on: IGROV1 ovarian
[20] = tested on: NCI-H23 lung
[21] = tested on: EKVX NSCLC
[22] = tested on: MDA-MB-435
[23] = tested on: ACHN renal
[24] = tested on: SNB-75 CNS
[25] = tested on: SK-OV-3 ovarian
[26] = tested on: SK-MEL-5 melanoma
[27] = tested on: SF-268 CNS
[28] = tested on: HS 578T breast
[29] = tested on: A498 renal

**Q.** Which results are given for `Cc1nnc(N/N=C/c2ccc([N+](=O)[O-])o2)[nH]c1=O`?
**A.** GI50 [1]: 570 nM; TGI [1]: > 100000 nM; GI50 [2]: 2980 nM; TGI [2]: > 100000 nM; GI50 [3]: 1790 nM; TGI [3]: > 100000 nM; GI50 [4]: 659 nM; TGI [4]: > 100000 nM; GI50 [5]: 3140 nM; TGI [5]: > 48800 nM; GI50 [6]: 2890 nM; TGI [6]: > 100000 nM; GI50 [7]: 289 nM; TGI [7]: > 100000 nM; GI50 [8]: 1070 nM; TGI [8]: 13800 nM; GI50 [9]: 3360 nM; TGI [9]: > 100000 nM; GI50 [10]: 796 nM; TGI [10]: > 100000 nM; GI50 [11]: 589 nM; TGI [11]: 22500 nM; GI50 [12]: 649 nM; TGI [12]: 15300 nM; GI50 [13]: 914 nM; TGI [13]: 5580 nM; GI50 [14]: 441 nM; GI50 [15]: 1240 nM; TGI [15]: > 100000 nM; GI50 [16]: 429 nM; TGI [16]: 3180 nM; GI50 [17]: 228 nM; TGI [17]: 1760 nM; GI50 [18]: 1240 nM; TGI [18]: > 100000 nM; GI50 [19]: 3820 nM; TGI [19]: > 100000 nM; GI50 [20]: 1370 nM; TGI [20]: > 100000 nM; GI50 [21]: 1050 nM; TGI [21]: > 100000 nM; GI50 [22]: 908 nM; TGI [22]: > 100000 nM; GI50 [23]: 603 nM; TGI [23]: 4580 nM; GI50 [24]: 1360 nM; TGI [24]: 67500 nM; GI50 [25]: 3770 nM; TGI [25]: > 93500 nM; GI50 [26]: 840 nM; TGI [26]: 3300 nM; GI50 [27]: 521 nM; TGI [27]: > 57900 nM; GI50 [28]: 425 nM; TGI [28]: 40800 nM; GI50 [29]: 756 nM
